These results are taken from patent US20230089867A1, “CYCLIC PENTAMER COMPOUNDS AS PROPROTEIN CONVERTASE SUBTILISIN/KEXIN TYPE 9 (PCSK9) INHIBITORS FOR THE TREATMENT OF METABOLIC DISORDER” (Novartis AG, priority 2018, published 2023).

This test has as its target human PCSK9 (Homo sapiens, UniProt Q8NBP7). The experiment in a line: PCSK9 ligand binding TR-FRET assay (interference with binding of human PCSK9 to human LDLR). Particulars: for Max % inhibition: PCSK9 FRET assay, efficacy (Amax), 100% = 1 uM unlabeled human PCSK9, 0% = DMSO; for IC50: TR-FRET, human PCSK9 Alexa Fluor 647 / human LDLR extracellular domain-Europium Kryptate, read-out: PCSK9 FRET Assay IC50. The procedure, abridged: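 Threefold compound dilutions were pre-incubated 30 min with PCSK9, after which 4 nM Europium Kryptate-tagged human LDLR ectodomain was added for a further 2 h.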
On the technique in general: In TR-FRET formats the signal depends on donor and acceptor labels being close together.

The term IC50 denotes the concentration needed to halve the response being measured.

Each structure is given as a SMILES string.

human PCSK9, sequence (Q8NBP7 153-692): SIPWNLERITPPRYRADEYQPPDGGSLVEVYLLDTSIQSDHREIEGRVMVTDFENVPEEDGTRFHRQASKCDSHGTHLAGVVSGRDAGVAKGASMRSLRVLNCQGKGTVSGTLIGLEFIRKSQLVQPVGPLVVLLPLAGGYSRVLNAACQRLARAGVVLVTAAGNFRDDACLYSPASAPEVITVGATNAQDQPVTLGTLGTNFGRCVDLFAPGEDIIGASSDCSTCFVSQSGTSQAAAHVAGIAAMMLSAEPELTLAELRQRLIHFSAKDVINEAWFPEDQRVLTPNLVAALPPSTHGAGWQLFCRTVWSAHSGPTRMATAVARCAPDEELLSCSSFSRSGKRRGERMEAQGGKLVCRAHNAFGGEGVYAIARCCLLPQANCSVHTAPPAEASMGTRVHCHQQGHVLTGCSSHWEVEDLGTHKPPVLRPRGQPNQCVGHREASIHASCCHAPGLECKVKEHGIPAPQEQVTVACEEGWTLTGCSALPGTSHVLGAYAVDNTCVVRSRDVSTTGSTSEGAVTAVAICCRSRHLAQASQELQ
human PCSK9, sequence (Q8NBP7 31-152 partner limits assumed): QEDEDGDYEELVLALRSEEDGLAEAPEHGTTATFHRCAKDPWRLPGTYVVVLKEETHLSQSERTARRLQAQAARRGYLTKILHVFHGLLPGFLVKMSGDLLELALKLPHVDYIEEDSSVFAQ

For `COC[C@@H]1NC(=O)[C@H](C)N(Cc2ccc(Cl)cc2Oc2ccc(-n3cnc(C(=O)NCCO)c3C)cc2)C(=O)C[C@@H](Cc2ccccc2)C(=O)N(C)[C@@H](C)CNC(=O)C[C@H](Cc2ccc(Cl)cc2)N(C)C1=O` [Compound 188, 1-(4-(2-(((2S,5S,8S,13S,16R)-16-benzyl-8-(4-chlorobenzyl)-5-(methoxymethyl)-2,7,13,14-tetramethyl-3,6,10,15,18-pentaoxo-1,4,7,11,14-pentaazacyclooctadecan-1-yl)methyl)-5-chlorophenoxy)phenyl)-N-(2-hydroxyethyl)-5-methyl-1H-imidazole-4-carboxamide], the Max % inhibition turned out to be 75.17% and the IC50 amounted to 0.0162 µM.
As to `COC[C@@H]1NC(=O)[C@H](C)N(Cc2ccc(Cl)cc2Oc2ccc(-c3cnc(CN4CC5(COC5)C4)n3C)cc2)C(=O)C[C@@H](Cc2ccccc2)C(=O)N(C)[C@@H](C)CNC(=O)C[C@H](Cc2ccc(Cl)cc2)N(C)C1=O` [Compound 189, (2S,5S,8S,13S,16R)-1-(2-(4-(2-(2-oxa-6-azaspiro[3.3]heptan-6-ylmethyl)-1-methyl-1H-imidazol-5-yl)phenoxy)-4-chlorobenzyl)-16-benzyl-8-(4-chlorobenzyl)-5-(methoxymethyl)-2,7,13,14-tetramethyl-1,4,7,11,14-pentaazacyclooctadecane-3,6,10,15,18-pentaone], the Max % inhibition turned out to be 95.01% and the IC50 was found to be 0.0014 µM.
Turning to `COC[C@@H]1NC(=O)[C@H](C)N(Cc2ccc(Cl)cc2Oc2ccc(-c3cnc(CN4CCCC4)n3C)cc2)C(=O)C[C@@H](Cc2ccccc2)C(=O)N(C)[C@@H](CCN(C)C)CNC(=O)C[C@H](Cc2ccc(Cl)cc2)N(C)C1=O` [Compound 190, (2S,5S,8S,13S,16R)-16-benzyl-1-(4-chloro-2-(4-(1-methyl-2-(pyrrolidin-1-ylmethyl)-1H-imidazol-5-yl)phenoxy)benzyl)-8-(4-chlorobenzyl)-13-(2-(dimethylamino)ethyl)-5-(methoxymethyl)-2,7,14-trimethyl-1,4,7,11,14-pentaazacyclooctadecane-3,6,10,15,18-pentaone], the Max % inhibition turned out to be 100.60% and the IC50 was 0.0326 µM.
On the same counts, the results for `COC[C@@H]1NC(=O)[C@H](CCCNC(=O)OC(C)(C)C)N(Cc2ccc(Cl)cc2Oc2ccc(-c3cnc(CN4CCCC4)n3C)cc2)C(=O)C[C@@H](Cc2ccccc2)C(=O)N(C)[C@H]2CCCC[C@@H]2NC(=O)C[C@H](Cc2ccc(Cl)cc2)N(C)C1=O` [Compound 191, tert-butyl (3-((4S,7S,10S,14R,16aS,20aS)-14-benzyl-11-(4-chloro-2-(4-(1-methyl-2-(pyrrolidin-1-ylmethyl)-1H-imidazol-5-yl)phenoxy)benzyl)-4-(4-chlorobenzyl)-7-(methoxymethyl)-5,16-dimethyl-2,6,9,12,15-pentaoxodocosahydrobenzo[l][1,4,7,11,14]pentaazacyclooctadecin-10-yl)propyl)carbamate] are 94.20% and 0.0021 µM.
On the same counts, the results for `COC[C@@H]1NC(=O)[C@H](CCCN)N(Cc2ccc(Cl)cc2Oc2ccc(-c3cnc(CN(C)C)n3C)cc2)C(=O)C[C@@H](Cc2ccccc2)C(=O)N(C)[C@@H](C)CNC(=O)C[C@H](Cc2ccc(Cl)cc2)N(C)C1=O` [Compound 192, (2S,5S,8S,13S,16R)-2-(3-aminopropyl)-16-benzyl-1-(4-chloro-2-(4-(2-((dimethylamino)methyl)-1-methyl-1H-imidazol-5-yl)phenoxy)benzyl)-8-(4-chlorobenzyl)-5-(methoxymethyl)-7,13,14-trimethyl-1,4,7,11,14-pentaazacyclooctadecane-3,6,10,15,18-pentaone] are 97.97% and 0.107 µM.
`C[C@@H]1CC(=O)N(Cc2ccc(Cl)cc2Oc2ccc(-c3cnc(CN(C)C)n3C)cc2)[C@@H](C)C(=O)N[C@@H](CO)C(=O)N(C)[C@@H](Cc2ccc(Cl)cc2)CC(=O)NC[C@H](C)N(C)C1=O` [Compound 193, (2S,5S,8S,13S,16R)-1-(4-chloro-2-(4-(2-((dimethylamino)methyl)-1-methyl-1H-imidazol-5-yl)phenoxy)benzyl)-8-(4-chlorobenzyl)-5-(hydroxymethyl)-2,7,13,14,16-pentamethyl-1,4,7,11,14-pentaazacyclooctadecane-3,6,10,15,18-pentaone]: the Max % inhibition is listed as 84.54% and the IC50 was found to be 0.0061 µM.
`C[C@@H]1C(=O)N[C@@H](CO)C(=O)N(C)[C@@H](Cc2ccc(Cl)cc2)CC(=O)N[C@H]2CCCC[C@@H]2N(C)C(=O)[C@H](Cc2ccccc2)CC(=O)N1Cc1ccc(Cl)cc1Oc1ccc(-c2cnc(CN(C)C)n2C)cc1` [Compound 194, (4S,7S,10R,14R,16aS,20aS)-14-benzyl-11-(4-chloro-2-(4-(2-((dimethylamino)methyl)-1-methyl-1H-imidazol-5-yl)phenoxy)benzyl)-4-(4-chlorobenzyl)-7-(hydroxymethyl)-5,10,16-trimethylhexadecahydrobenzo[l][1,4,7,11,14]pentaazacyclooctadecine-2,6,9,12,15(3H)-pentaone]: the Max % inhibition came out at 96.92% and the IC50 amounted to 0.0055 µM.
Turning to `COC[C@@H]1NC(=O)[C@H](C)N(Cc2ccc(Cl)cc2Oc2ccc(-c3cnc(CN(C)C)n3C)cc2)C(=O)CCC(=O)N(C)[C@@H](C)CNC(=O)C[C@H](Cc2ccc(Cl)cc2)N(C)C1=O` [Compound 195, (2S,5S,8S,13S)-1-(4-chloro-2-(4-(2-((dimethylamino)methyl)-1-methyl-1H-imidazol-5-yl)phenoxy)benzyl)-8-(4-chlorobenzyl)-5-(methoxymethyl)-2,7,13,14-tetramethyl-1,4,7,11,14-pentaazacyclooctadecane-3,6,10,15,18-pentaone], the Max % inhibition came to 100.43% and the IC50 is 0.0734 µM.
For the compound `COC[C@@H]1NC(=O)[C@H](C)N(Cc2c(Oc3ccc(-c4cnc(CN(C)C)n4C)cc3)cccc2OC(F)F)C(=O)CCC(=O)N(C)[C@H]2CCCC[C@@H]2NC(=O)C[C@H](Cc2ccc(Cl)cc2)N(C)C1=O` [Compound 196, (4S,7S,10S,16aS,20aS)-4-(4-chlorobenzyl)-11-(2-(difluoromethoxy)-6-(4-(2-((dimethylamino)methyl)-1-methyl-1H-imidazol-5-yl)phenoxy)benzyl)-7-(methoxymethyl)-5,10,16-trimethylhexadecahydrobenzo[l][1,4,7,11,14]pentaazacyclooctadecine-2,6,9,12,15(3H)-pentaone], the Max % inhibition is recorded as 97.92% and the IC50 came out at 0.003 µM.
Take `COC[C@@H]1NC(=O)[C@H](C)N(Cc2ccc(Cl)cc2Oc2ccc(-c3cnc(OC)n3C)cc2)C(=O)C[C@@H](Cc2ccccc2)C(=O)N(C)[C@@H](C)CNC(=O)C[C@H](Cc2ccc(Cl)cc2)N(C)C1=O` [Compound 197, (2S,5S,8S,13S,16R)-16-benzyl-1-(4-chloro-2-(4-(2-methoxy-1-methyl-1H-imidazol-5-yl)phenoxy)benzyl)-8-(4-chlorobenzyl)-5-(methoxymethyl)-2,7,13,14-tetramethyl-1,4,7,11,14-pentaazacyclooctadecane-3,6,10,15,18-pentaone]: the Max % inhibition worked out at 72.51% and the IC50 came out at 0.0174 µM.
With `COC[C@@H]1NC(=O)[C@H](C)N(Cc2ccc(Cl)cc2Oc2ccc(-c3cnc(CN4CCCC4)n3C)cc2)C(=O)C[C@@H](Cc2ccccc2)C(=O)N(C)[C@@H](C)[C@H](C)NC(=O)C[C@H](Cc2ccc(Cl)cc2)N(C)C1=O` [Compound 198, (2S,5S,8S,12S,13S,16R)-16-benzyl-1-(4-chloro-2-(4-(1-methyl-2-(pyrrolidin-1-ylmethyl)-1H-imidazol-5-yl)phenoxy)benzyl)-8-(4-chlorobenzyl)-5-(methoxymethyl)-2,7,12,13,14-pentamethyl-1,4,7,11,14-pentaazacyclooctadecane-3,6,10,15,18-pentaone], the Max % inhibition was found to be 98.27% and the IC50 came to 0.0006 µM.
On the same counts, the results for `COC[C@@H]1NC(=O)[C@H](C)N(Cc2ccc(F)cc2Oc2ccc(-c3cnc(CN(C)C)n3C)cc2)C(=O)C[C@@H](Cc2ccccc2)C(=O)N(C)[C@@H](C)CNC(=O)C[C@H](Cc2ccc(Cl)cc2)N(C)C1=O` [Compound 199, (2S,5S,8S,13S,16R)-16-benzyl-8-(4-chlorobenzyl)-1-(2-(4-(2-((dimethylamino)methyl)-1-methyl-1H-imidazol-5-yl)phenoxy)-4-fluorobenzyl)-5-(methoxymethyl)-2,7,13,14-tetramethyl-1,4,7,11,14-pentaazacyclooctadecane-3,6,10,15,18-pentaone] are 100.29% and 0.0248 µM.
On to `COC[C@H]1C(=O)N[C@@H](CO)C(=O)N(C)[C@@H](Cc2ccc(Cl)cc2)CC(=O)NC[C@H](C)N(C)C(=O)CCC(=O)N1Cc1ccccc1Oc1ccc(-c2cnc(CN(C)C)n2C)cc1` [Compound 200, (2S,5S,8S,13S)-8-(4-chlorobenzyl)-1-(2-(4-(2-((dimethylamino)methyl)-1-methyl-1H-imidazol-5-yl)phenoxy)benzyl)-5-(hydroxymethyl)-2-(methoxymethyl)-7,13,14-trimethyl-1,4,7,11,14-pentaazacyclooctadecane-3,6,10,15,18-pentaone], for which the Max % inhibition was found to be 93.78% and the IC50 turned out to be 0.0654 µM.
Regarding `COC[C@@H]1NC(=O)[C@H](C)N(Cc2ccc(Cl)cc2Oc2ccc(-c3cnc(CN(C)C)n3C)cc2)C(=O)CC2(CC2)C(=O)N(C)[C@@H](C)CNC(=O)C[C@H](Cc2ccc(Cl)cc2)N(C)C1=O` [Compound 201, (6S,11S,14S,17S)-18-(4-chloro-2-(4-(2-((dimethylamino)methyl)-1-methyl-1H-imidazol-5-yl)phenoxy)benzyl)-11-(4-chlorobenzyl)-14-(methoxymethyl)-5,6,12,17-tetramethyl-5,8,12,15,18-pentaazaspiro[2.17]icosane-4,9,13,16,19-pentaone], the Max % inhibition is listed as 72.22% and the IC50 was 0.441 µM.
